In patent publication US20230348475A1, “IMIDAZOPYRIDAZINE AND IMIDAZOPYRAZINE COMPOUNDS AS INHIBITORS OF CDK7” (THE TRANSLATIONAL GENOMICS RESEARCH INSTITUTE, priority 2020, published 2023):
Counter-ions that a name gives are not always drawn. Like-named read-outs stand apart in the source and are kept apart here.

Key:
CDK7/CycH/MAT1 = CDK7/CycH/MAT1 (Homo sapiens, UniProt P50613); test: Kinase Glo (ADP-Glo) biochemical assay, CDK7; settings: CDK7/CycH/MAT1 40 ng, ATP 1 μM, 60 minutes at RT, luminescence
Method in brief: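 Enzyme (40 ng), RB-CTF peptide substrate (200 ng or 400 ng) and 1 μM ATP reacted in HEPES pH 7.5 buffer with MgCl2, MnCl2, DTT and Na3VO4 for 60 min at RT. Ten-point compound dilutions were tested from 30 μM final. ADP formed was read by ADP-Glo luminescence.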

[1] = tested on: MiaPaCa2 pancreatic cancer cell line; test: Cell viability assay (Cell Titer Glo), MiaPaCa2; assay type: cell-based; settings: Homo sapiens, MIA PaCa-2, 72 hour incubation
Protocol: (§1) Materials: • Cell Lines (Treated according to ATCC guidelines) • Cell Titer Glo (Promega Cat #G7572) • DMSO • 96-well White Tissue Culture Treated Plates (Perkin Elmer Cat #60005680)
(§2) Cells were seeded in a white 96-well tissue culture treated plate at a density of 1500 cells in 90 μL of media per well and allowed to settle overnight. A ten point serial dilution of drugs was prepared at 10×concentration in media with the final assay concentrations starting at 30 μM, 10 μM, 3 μM, 1 μM, 0.3 μM . . . 0 μM. A dilution of DMSO was included as a control. The assay was set up by adding 10 μL of the corresponding drug to each well in duplicate, followed by a 72 hour incubation at 37° C., 5% CO2. Cell viability was quantified by adding 90 μL of Cell Titer Glo to each well and incubating at room temperature for 10 minutes. The reaction was quantified by measuring luminescence using the Envision Plate Reader. Data was analyzed using Graphpad Prism 7 software.

[2] = tested on: HPAC pancreatic cancer cell line; test: Cell viability assay (Cell Titer Glo), HPAC; assay type: cell-based; settings: Homo sapiens, HPAC, 72 hour incubation
Protocol: as §1, §2

[3] = tested on: MDA-MB-231 breast cancer cell line; test: Cell viability assay (Cell Titer Glo), MDA-MB-231; assay type: cell-based; settings: Homo sapiens, MDA-MB-231, 72 hour incubation
Protocol: as §1, §2

MDA-MB436 cells = test: Cell viability assay (Cell Titer Glo), MDA-MB436; assay type: cell-based; settings: Homo sapiens, MDA-MB-436; Table 7b; 72 hour incubation
Protocol: as §2, with “Cell Viability Assay Materials: • Cell Lines (Treated according to ATCC guidelines) • Cell Titer Glo (Promega Cat #G7572) • DMSO • 96-well White Tissue Culture Treated Plates (Perkin Elmer Cat #60005680) Method: Cells” for “Cells”, “μ[…]” for “μM, 10 μM, 3 μM, 1 μM, 0.3 μM . . . 0 μM. A”

MDA-MB468 cells = test: Cell viability assay (Cell Titer Glo), MDA-MB468; assay type: cell-based; settings: Homo sapiens, MDA-MB-468; Table 7b; 72 hour incubation
Protocol: as §2, with “Cell Viability Assay Materials: • Cell Lines (Treated according to ATCC guidelines) • Cell Titer Glo (Promega Cat #G7572) • DMSO • 96-well White Tissue Culture Treated Plates (Perkin Elmer Cat #60005680) Method: Cells” for “Cells”, “μ[…]” for “μM, 10 μM, 3 μM, 1 μM, 0.3 μM . . . 0 μM. A”

[4] = tested on: Kasumi1 leukemia cancer cell line; test: Cell viability assay (Cell Titer Glo), Kasumi1; assay type: cell-based; settings: Homo sapiens, Kasumi 1, Table 7a, 72 hour incubation
Protocol: as §1, §2

[5] = tested on: A2780 ovarian cancer cell line; test: Cell viability assay (Cell Titer Glo), A2780; assay type: cell-based; settings: Homo sapiens, A2780, Table 7a, 72 hour incubation
Protocol: as §1, §2

[6] = tested on: A673 Ewingsarcoma cell line; test: Cell viability assay (Cell Titer Glo), A673; assay type: cell-based; settings: Homo sapiens, A673, Table 7a, 72 hour incubation
Protocol: as §1, §2

[7] = Table 7a, pancreatic cancer cell line
[8] = Table 7a, breast cancer cell line

CDK7/CycH/MAT1, sequence (P50613 whole entry): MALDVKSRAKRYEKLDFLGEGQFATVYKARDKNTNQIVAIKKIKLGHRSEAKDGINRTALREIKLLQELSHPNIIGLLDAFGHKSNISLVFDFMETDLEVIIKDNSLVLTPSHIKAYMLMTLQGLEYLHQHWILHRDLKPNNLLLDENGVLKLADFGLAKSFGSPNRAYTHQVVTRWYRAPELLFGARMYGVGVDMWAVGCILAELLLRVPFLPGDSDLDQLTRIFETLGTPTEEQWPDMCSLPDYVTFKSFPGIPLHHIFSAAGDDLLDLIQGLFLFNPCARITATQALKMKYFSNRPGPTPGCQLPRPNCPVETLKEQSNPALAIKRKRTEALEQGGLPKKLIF
CDK7/CycH/MAT1, sequence (P51946 whole entry partner): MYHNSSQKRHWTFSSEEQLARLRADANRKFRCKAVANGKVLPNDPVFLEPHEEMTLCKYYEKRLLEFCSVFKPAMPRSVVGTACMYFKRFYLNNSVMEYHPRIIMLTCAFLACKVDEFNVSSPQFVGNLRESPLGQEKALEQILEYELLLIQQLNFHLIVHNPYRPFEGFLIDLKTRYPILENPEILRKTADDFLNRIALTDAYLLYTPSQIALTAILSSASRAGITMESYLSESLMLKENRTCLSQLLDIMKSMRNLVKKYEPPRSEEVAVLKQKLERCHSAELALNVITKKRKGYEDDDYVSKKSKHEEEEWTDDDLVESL
CDK7/CycH/MAT1, sequence (P51948 whole entry partner): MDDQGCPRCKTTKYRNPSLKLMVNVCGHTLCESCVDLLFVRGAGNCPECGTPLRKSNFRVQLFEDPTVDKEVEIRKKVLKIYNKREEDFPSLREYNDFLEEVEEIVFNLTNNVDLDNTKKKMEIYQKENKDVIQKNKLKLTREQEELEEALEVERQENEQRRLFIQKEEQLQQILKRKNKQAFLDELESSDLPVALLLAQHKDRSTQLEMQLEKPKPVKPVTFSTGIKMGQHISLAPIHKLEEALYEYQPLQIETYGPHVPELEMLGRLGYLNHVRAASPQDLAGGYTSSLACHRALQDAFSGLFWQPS

Question: What does the source list for `Fc1cccc(Nc2cc(O[C@H]3CCCNC3)nn3c(C4CC4)cnc23)c1` [Compound I-1]?
Answer: IC50 (CDK7/CycH/MAT1): < 100 nM; IC50 ([1]; Table 7b, read-out: IC50 MIA PaCa2): < 1 µM; IC50 ([2]; Table 7b): 1 to 5 µM; IC50 ([3]; Table 7b, read-out: IC50 MDA-MB231): 1 to 5 µM; IC50 (MDA-MB436 cells): 1 to 5 µM; IC50 (MDA-MB468 cells): 1 to 5 µM

Question: Which results are given for `CC(C)c1cnc2c(NCc3ccccc3OC(F)(F)F)cc(OC3CCNCC3)nn12` [Compound 43, 3-isopropyl-6-(piperidin-4-yloxy)-N-(2-(trifluoromethoxy)benzyl)imidazo[1,2-b]pyridazin-8-amine hydrochloride]?
Answer: IC50 (CDK7/CycH/MAT1): < 100 nM; IC50 [1, 7]: 1 to 5 µM; IC50 [2, 7]: 1 to 5 µM; IC50 [4]: 1 to 5 µM; IC50 [3, 8]: 1 to 5 µM; IC50 [5]: 1 to 5 µM; IC50 [6]: 1 to 5 µM

Question: With `CC(C)c1cnc2c(NCc3ccccc3OC(F)(F)F)cc(NC3CCNCC3)nn12` [Compound 38, hydrochloride] as the compound, how does the IC50 (CDK7/CycH/MAT1) read?
Answer: The IC50 was less than 100 nM.

Question: And the IC50 [1, 7]?
Answer: Its IC50 is 1 to 5 µM.

Question: What about the IC50 [2, 7] of the same compound?
Answer: The IC50 was 1 to 5 µM.

Question: What about the IC50 [4] of the same compound?
Answer: Its IC50 is 1 to 5 µM.

Question: What about the IC50 [3, 8] of the same compound?
Answer: The IC50 was 1 to 5 µM.

Question: And the IC50 [5]?
Answer: Its IC50 is 1 to 5 µM.

Question: And the IC50 [6]?
Answer: Its IC50 is 1 to 5 µM.

Question: Which results are given for `CC(C)c1cnc2c(NCc3ccccc3OC(F)(F)F)cc(SC3CCCNC3)nn12` (centres unmarked) [Compound 37, 3-isopropyl-6-(piperidin-3-ylthio)-N-(2-(trifluoromethoxy)benzyl)imidazo[1,2-b]pyridazin-8-amine]?
Answer: IC50 (CDK7/CycH/MAT1): < 100 nM; IC50 [1, 7]: 1 to 5 µM; IC50 [2, 7]: 1 to 5 µM; IC50 [4]: 1 to 5 µM; IC50 [3, 8]: 1 to 5 µM; IC50 [5]: 1 to 5 µM; IC50 [6]: 1 to 5 µM

Question: Which IC50 (CDK7/CycH/MAT1) does the source give for `CC(C)c1cnc2c(Nc3cccc(F)c3)cc(O[C@H]3CCCNC3)nn12` [Compound 39, (S)-N-(3-fluorophenyl)-3-isopropyl-6-(piperidin-3-yloxy)imidazo[1,2-b]pyridazin-8-amine hydrochloride] here?
Answer: The IC50 was less than 100 nM.

Question: And the IC50 [1, 7]?
Answer: The IC50 was 1 to 5 µM.

Question: And the IC50 [2, 7]?
Answer: The IC50 was 1 to 5 µM.

Question: What about the IC50 [4] of the same compound?
Answer: Its IC50 is 1 to 5 µM.

Question: What about the IC50 [3, 8] of the same compound?
Answer: Its IC50 is 1 to 5 µM.

Question: And the IC50 [5]?
Answer: The IC50 was 1 to 5 µM.

Question: What about the IC50 [6] of the same compound?
Answer: Its IC50 is 1 to 5 µM.

Question: `CC(C)c1cnc2c(NCc3ccccc3OC(F)(F)F)cc(SC3CCNCC3)nn12` [Compound 33] was tested. Which IC50 (CDK7/CycH/MAT1) did it give?
Answer: The IC50 was less than 100 nM.

Question: And the IC50 [1, 7]?
Answer: The IC50 was less than 1 µM.

Question: And the IC50 [2, 7]?
Answer: The IC50 was less than 1 µM.

Question: And the IC50 [4]?
Answer: The IC50 was 1 to 5 µM.

Question: What about the IC50 [3, 8] of the same compound?
Answer: Its IC50 is 1 to 5 µM.

Question: And the IC50 [5]?
Answer: The IC50 was less than 1 µM.

Question: And the IC50 [6]?
Answer: The IC50 was less than 1 µM.

Question: What does the source list for `COc1ccccc1CNc1cc(SC2CCNCC2)nn2c(C(C)C)cnc12` [Compound 35, hydrochloride]?
Answer: IC50 (CDK7/CycH/MAT1): < 100 nM; IC50 [1, 7]: < 1 µM; IC50 [2, 7]: < 1 µM; IC50 [4]: 1 to 5 µM; IC50 [3, 8]: 1 to 5 µM; IC50 [5]: < 1 µM; IC50 [6]: < 1 µM

Question: What does the source list for `CC(C)c1cnc2c(N[C@@H](C)c3ccccc3)nc(SC3CCNCC3)cn12` [Compound 32, (S)-3-isopropyl-N-(1-phenylethyl)-6-(piperidin-4-ylthio)imidazo[1,2-α]pyrazin-8-amine dihydrochloride]?
Answer: IC50 (CDK7/CycH/MAT1): < 100 nM; IC50 [1, 7]: 1 to 5 µM; IC50 [2, 7]: 1 to 5 µM; IC50 [4]: 1 to 5 µM; IC50 [3, 8]: > 5 µM; IC50 [5]: 1 to 5 µM; IC50 [6]: 1 to 5 µM

Question: Which IC50 (CDK7/CycH/MAT1) does the source give for `CC(C)c1cnc2c(Nc3cccc(F)c3)cc(SC3CCNCC3)nn12` [Compound 44, N-(3-fluorophenyl)-3-isopropyl-6-(piperidin-4-ylthio)imidazo[1,2-b]pyridazin-8-amine hydrochloride] here?
Answer: The IC50 was less than 100 nM.

Question: What about the IC50 [1, 7] of the same compound?
Answer: The IC50 was less than 1 µM.

Question: And the IC50 [2, 7]?
Answer: The IC50 was less than 1 µM.

Question: And the IC50 [4]?
Answer: The IC50 was less than 1 µM.

Question: What about the IC50 [3, 8] of the same compound?
Answer: The IC50 was less than 1 µM.

Question: What about the IC50 [5] of the same compound?
Answer: Its IC50 is less than 1 µM.

Question: What about the IC50 [6] of the same compound?
Answer: Its IC50 is less than 1 µM.
